# Tests used:
# [1] = frontal affinity chromatography (FAC), association constant to PA sugar chains having other L-fucose; assay type: binding; settings: for association constant Ka: 25 degrees C.
# Summary of the method: (§1)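 Lectin coupled via primary amines to NHS-activated sepharose in a miniature column, run in TBS (pH 7.4) at 0.125 ml/min and 25 degrees C. PA sugar chains (3.75 nM or 7.5 nM) applied in excess, with elution monitored by fluorescence (ex 310/em 380 nm). Ka calculated from front-end delay (V−Vo) versus PA rhamnose and effective ligand amount (Bt).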
# [2] = frontal affinity chromatography (FAC), association constant to PA sugar chains without L-fucose; assay type: binding; settings: for association constant Ka: 25 degrees C.
# Summary of the method: as §1
substance,measurement,setting,value
"Pholiota terrestris lectin [PTL, novel L-fucose α1→6 specific lectin purified from the mushroom Pholiota terrestris]",binding to non-L-fucose α1→6 sugar chain,[1]; FAC,not bound
same,association constant Ka,[1]; Sugar chain No. 419,<1000 M⁻¹
same,association constant Ka,[1]; Sugar chain No. 420,<1000 M⁻¹
same,association constant Ka,[1]; Sugar chain No. 718,<1000 M⁻¹
same,association constant Ka,[1]; Sugar chain No. 719,<1000 M⁻¹
same,association constant Ka,[1]; Sugar chain No. 720,<1000 M⁻¹
same,association constant Ka,[1]; Sugar chain No. 721,<1000 M⁻¹
same,association constant Ka,[1]; Sugar chain No. 722,<1000 M⁻¹
same,association constant Ka,[1]; Sugar chain No. 723,<1000 M⁻¹
same,association constant Ka,[1]; Sugar chain No. 726,<1000 M⁻¹
same,association constant Ka,[1]; Sugar chain No. 727,<1000 M⁻¹
same,association constant Ka,[1]; Sugar chain No. 728 (as listed in Table 5/12),<1000 M⁻¹
same,association constant Ka,[1]; Sugar chain No. 729,<1000 M⁻¹
same,association constant Ka,[1]; Sugar chain No. 730,<1000 M⁻¹
same,association constant Ka,[1]; Sugar chain No. 731,<1000 M⁻¹
same,association constant Ka,[1]; Sugar chain No. 739,<1000 M⁻¹
same,association constant Ka,[1]; Sugar chain No. 909,<1000 M⁻¹
same,association constant Ka,[1]; Sugar chain No. 910,<1000 M⁻¹
same,association constant Ka,[1]; Sugar chain No. 931,<1000 M⁻¹
same,association constant Ka,[1]; Sugar chain No. 932,<1000 M⁻¹
same,association constant Ka,[1]; Sugar chain No. 933,<1000 M⁻¹
same,binding to sugar chain not having L-fucose,[2]; FAC,not bound
same,association constant Ka,[2]; Sugar chain No. 001,<1000 M⁻¹
same,association constant Ka,[2]; Sugar chain No. 002,<1000 M⁻¹
same,association constant Ka,[2]; Sugar chain No. 003,<1000 M⁻¹
same,association constant Ka,[2]; Sugar chain No. 004,<1000 M⁻¹
same,association constant Ka,[2]; Sugar chain No. 005,<1000 M⁻¹
same,association constant Ka,[2]; Sugar chain No. 006,<1000 M⁻¹
same,association constant Ka,[2]; Sugar chain No. 007,<1000 M⁻¹
same,association constant Ka,[2]; Sugar chain No. 008,<1000 M⁻¹
same,association constant Ka,[2]; Sugar chain No. 009,<1000 M⁻¹
same,association constant Ka,[2]; Sugar chain No. 010,<1000 M⁻¹
same,association constant Ka,[2]; Sugar chain No. 011,<1000 M⁻¹
same,association constant Ka,[2]; Sugar chain No. 012,<1000 M⁻¹
same,association constant Ka,[2]; Sugar chain No. 013,<1000 M⁻¹
same,association constant Ka,[2]; Sugar chain No. 014,<1000 M⁻¹
same,association constant Ka,[2]; Sugar chain No. 101,<1000 M⁻¹
same,association constant Ka,[2]; Sugar chain No. 103,<1000 M⁻¹
same,association constant Ka,[2]; Sugar chain No. 104,<1000 M⁻¹
same,association constant Ka,[2]; Sugar chain No. 105,<1000 M⁻¹
same,association constant Ka,[2]; Sugar chain No. 107,<1000 M⁻¹
same,association constant Ka,[2]; Sugar chain No. 108,<1000 M⁻¹
same,association constant Ka,[2]; Sugar chain No. 301,<1000 M⁻¹
same,association constant Ka,[2]; Sugar chain No. 304,<1000 M⁻¹
same,association constant Ka,[2]; Sugar chain No. 305,<1000 M⁻¹
same,association constant Ka,[2]; Sugar chain No. 307,<1000 M⁻¹
same,association constant Ka,[2]; Sugar chain No. 308,<1000 M⁻¹
same,association constant Ka,[2]; Sugar chain No. 313,<1000 M⁻¹
same,association constant Ka,[2]; Sugar chain No. 314,<1000 M⁻¹
same,association constant Ka,[2]; Sugar chain No. 323,<1000 M⁻¹
same,association constant Ka,[2]; Sugar chain No. 501,<1000 M⁻¹
same,association constant Ka,[2]; Sugar chain No. 502,<1000 M⁻¹
same,association constant Ka,[2]; Sugar chain No. 503,<1000 M⁻¹
same,association constant Ka,[2]; Sugar chain No. 504,<1000 M⁻¹
same,association constant Ka,[2]; Sugar chain No. 701,<1000 M⁻¹
same,association constant Ka,[2]; Sugar chain No. 702,<1000 M⁻¹
same,association constant Ka,[2]; Sugar chain No. 703,<1000 M⁻¹
same,association constant Ka,[2]; Sugar chain No. 704,<1000 M⁻¹
same,association constant Ka,[2]; Sugar chain No. 705,<1000 M⁻¹
same,association constant Ka,[2]; Sugar chain No. 706,<1000 M⁻¹
same,association constant Ka,[2]; Sugar chain No. 707,<1000 M⁻¹
same,association constant Ka,[2]; Sugar chain No. 708,<1000 M⁻¹
same,association constant Ka,[2]; Sugar chain No. 709,<1000 M⁻¹
same,association constant Ka,[2]; Sugar chain No. 710,<1000 M⁻¹
same,association constant Ka,[2]; Sugar chain No. 711,<1000 M⁻¹
same,association constant Ka,[2]; Sugar chain No. 712,<1000 M⁻¹
same,association constant Ka,[2]; Sugar chain No. 713,<1000 M⁻¹
same,association constant Ka,[2]; Sugar chain No. 715,<1000 M⁻¹
same,association constant Ka,[2]; Sugar chain No. 716,<1000 M⁻¹
same,association constant Ka,[2]; Sugar chain No. 717,<1000 M⁻¹
same,association constant Ka,[2]; Sugar chain No. 724,<1000 M⁻¹
same,association constant Ka,[2]; Sugar chain No. 725,<1000 M⁻¹
same,association constant Ka,[2]; Sugar chain No. 728 (as listed in Table 7),<1000 M⁻¹
same,association constant Ka,[2]; Sugar chain No. 732,<1000 M⁻¹
same,association constant Ka,[2]; Sugar chain No. 733,<1000 M⁻¹
same,association constant Ka,[2]; Sugar chain No. 734,<1000 M⁻¹
same,association constant Ka,[2]; Sugar chain No. 735,<1000 M⁻¹
same,association constant Ka,[2]; Sugar chain No. 736,<1000 M⁻¹
same,association constant Ka,[2]; Sugar chain No. 737,<1000 M⁻¹
same,association constant Ka,[2]; Sugar chain No. 738,<1000 M⁻¹
same,association constant Ka,[2]; Sugar chain No. 901,<1000 M⁻¹
same,association constant Ka,[2]; Sugar chain No. 902,<1000 M⁻¹
same,association constant Ka,[2]; Sugar chain No. 903,<1000 M⁻¹
same,association constant Ka,[2]; Sugar chain No. 905,<1000 M⁻¹
same,association constant Ka,[2]; Sugar chain No. 906,<1000 M⁻¹
same,association constant Ka,[2]; Sugar chain No. 907,<1000 M⁻¹
